What was measured:
Assay type in all cases: biochemical
A-Raf = target: T1, A-Raf (Homo sapiens, UniProt P10398); assay: Kinase activity assay, A-Raf; details: Table 1a; read-out: activity toward kinase A-Raf, IC50
T1 sequence (P10398 1-606): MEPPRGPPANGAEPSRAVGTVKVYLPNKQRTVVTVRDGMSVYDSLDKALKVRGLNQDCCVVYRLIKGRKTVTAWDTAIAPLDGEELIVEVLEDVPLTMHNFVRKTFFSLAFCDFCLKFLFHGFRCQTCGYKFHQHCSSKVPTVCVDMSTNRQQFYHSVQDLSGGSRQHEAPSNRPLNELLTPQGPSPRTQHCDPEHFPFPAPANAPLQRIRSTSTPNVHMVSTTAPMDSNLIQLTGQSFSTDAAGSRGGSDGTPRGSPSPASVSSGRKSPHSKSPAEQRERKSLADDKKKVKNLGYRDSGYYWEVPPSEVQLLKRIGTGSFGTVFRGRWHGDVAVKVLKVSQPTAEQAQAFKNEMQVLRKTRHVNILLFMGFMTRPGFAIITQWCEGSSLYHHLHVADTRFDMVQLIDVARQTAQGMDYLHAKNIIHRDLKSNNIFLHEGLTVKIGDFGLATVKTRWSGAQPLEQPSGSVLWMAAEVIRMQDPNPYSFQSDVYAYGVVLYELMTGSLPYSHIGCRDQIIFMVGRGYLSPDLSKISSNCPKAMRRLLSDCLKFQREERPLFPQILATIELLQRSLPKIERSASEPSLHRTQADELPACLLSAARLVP
Source text: (§1) Assays for the activity of kinases, including, but not limited to, Fms, Kit, B-Raf, B-Raf V600E, c-Raf-1, and TrkA are known in the art, for example as described in US Patent Publication Number US20070032519 and U.S. patent application Ser. No. 11/473,347 (see also, PCT publication WO2007002433), the disclosures of which are hereby incorporated by reference with respect to such assays.

B-Raf V600E = B-Raf V600E (Homo sapiens, UniProt P15056, V600E); assay: Kinase activity assay, B-Raf V600E; details: Table 1c; read-out: activity toward kinase B-Raf V600E, IC50
Source text: as §1

Flt-1 = Flt-1 (Homo sapiens, UniProt P17948); assay: Kinase activity assay, Flt-1; details: Table 1f; read-out: activity toward kinase Flt-1, IC50
Source text: as §1

Flt-3 = target: T2, Flt-3 (Homo sapiens, UniProt P36888); assay: Kinase activity assay, Flt-3; details: Table 1g; read-out: activity toward kinase Flt-3, IC50
T2 sequence (P36888 27-993): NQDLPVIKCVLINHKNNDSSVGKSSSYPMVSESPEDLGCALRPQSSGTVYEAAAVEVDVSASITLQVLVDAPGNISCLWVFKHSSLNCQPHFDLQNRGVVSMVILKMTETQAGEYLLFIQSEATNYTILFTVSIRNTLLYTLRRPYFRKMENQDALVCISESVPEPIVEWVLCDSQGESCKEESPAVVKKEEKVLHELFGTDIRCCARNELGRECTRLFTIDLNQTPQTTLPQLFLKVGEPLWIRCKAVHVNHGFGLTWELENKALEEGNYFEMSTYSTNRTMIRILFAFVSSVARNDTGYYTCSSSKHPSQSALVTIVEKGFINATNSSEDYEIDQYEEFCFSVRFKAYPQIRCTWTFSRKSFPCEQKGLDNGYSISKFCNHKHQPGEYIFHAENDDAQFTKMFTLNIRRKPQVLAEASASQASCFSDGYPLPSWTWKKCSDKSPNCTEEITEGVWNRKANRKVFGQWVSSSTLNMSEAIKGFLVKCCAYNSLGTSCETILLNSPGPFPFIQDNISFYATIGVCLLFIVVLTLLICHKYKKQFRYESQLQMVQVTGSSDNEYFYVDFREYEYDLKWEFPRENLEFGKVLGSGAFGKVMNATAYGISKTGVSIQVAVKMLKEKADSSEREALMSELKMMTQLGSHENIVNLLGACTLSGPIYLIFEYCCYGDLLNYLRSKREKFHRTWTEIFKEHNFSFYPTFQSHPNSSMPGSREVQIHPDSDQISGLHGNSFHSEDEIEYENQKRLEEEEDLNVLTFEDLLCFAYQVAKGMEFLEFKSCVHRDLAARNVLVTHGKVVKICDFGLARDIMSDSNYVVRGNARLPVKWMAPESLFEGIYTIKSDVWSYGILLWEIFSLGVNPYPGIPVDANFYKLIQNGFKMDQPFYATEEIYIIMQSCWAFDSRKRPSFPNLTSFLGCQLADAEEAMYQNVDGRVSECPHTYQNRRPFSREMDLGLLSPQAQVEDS
Source text: as §1

Fms = Fms (Homo sapiens, UniProt P07333); assay: Kinase activity assay, Fms; details: Table 1h; read-out: activity toward kinase Fms, IC50
Source text: as §1

Kit = Kit (Homo sapiens, UniProt P10721); assay: Kinase activity assay, Kit; details: Table 1j; read-out: activity toward kinase Kit, IC50
Source text: as §1

TEC = target: T3, TEC (Homo sapiens, UniProt P42680); assay: Kinase activity assay, TEC; details: Table 1l; read-out: activity toward kinase TEC, IC50
T3 sequence (P42680 1-631): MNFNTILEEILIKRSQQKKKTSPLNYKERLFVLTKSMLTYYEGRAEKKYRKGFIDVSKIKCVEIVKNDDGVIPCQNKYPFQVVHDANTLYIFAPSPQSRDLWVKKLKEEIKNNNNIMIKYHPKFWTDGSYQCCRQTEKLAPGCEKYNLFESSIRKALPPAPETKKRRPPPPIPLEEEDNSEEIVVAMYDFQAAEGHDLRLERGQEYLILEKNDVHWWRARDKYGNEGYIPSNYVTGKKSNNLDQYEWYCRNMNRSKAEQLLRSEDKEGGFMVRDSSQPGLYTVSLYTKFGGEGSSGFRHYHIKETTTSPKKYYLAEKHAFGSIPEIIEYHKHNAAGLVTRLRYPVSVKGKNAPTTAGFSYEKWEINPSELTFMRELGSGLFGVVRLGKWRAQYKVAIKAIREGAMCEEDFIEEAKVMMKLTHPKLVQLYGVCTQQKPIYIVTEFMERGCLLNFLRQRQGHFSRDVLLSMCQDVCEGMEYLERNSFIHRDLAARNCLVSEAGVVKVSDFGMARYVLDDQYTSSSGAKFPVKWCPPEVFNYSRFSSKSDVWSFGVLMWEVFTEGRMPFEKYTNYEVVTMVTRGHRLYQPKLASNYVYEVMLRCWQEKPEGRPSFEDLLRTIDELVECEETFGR
Source text: as §1

TrkA = TrkA (Homo sapiens, UniProt P04629); assay: Kinase activity assay, TrkA; details: Table 1m; read-out: activity toward kinase TrkA, IC50
Source text: as §1

Kdr = Kdr (Homo sapiens, UniProt P35968); assay: Kinase activity assay, Kdr; details: Table 1i; read-out: activity toward kinase Kdr, IC50
Source text: as §1

Measured: IC50

Kit, sequence (P10721 26-976): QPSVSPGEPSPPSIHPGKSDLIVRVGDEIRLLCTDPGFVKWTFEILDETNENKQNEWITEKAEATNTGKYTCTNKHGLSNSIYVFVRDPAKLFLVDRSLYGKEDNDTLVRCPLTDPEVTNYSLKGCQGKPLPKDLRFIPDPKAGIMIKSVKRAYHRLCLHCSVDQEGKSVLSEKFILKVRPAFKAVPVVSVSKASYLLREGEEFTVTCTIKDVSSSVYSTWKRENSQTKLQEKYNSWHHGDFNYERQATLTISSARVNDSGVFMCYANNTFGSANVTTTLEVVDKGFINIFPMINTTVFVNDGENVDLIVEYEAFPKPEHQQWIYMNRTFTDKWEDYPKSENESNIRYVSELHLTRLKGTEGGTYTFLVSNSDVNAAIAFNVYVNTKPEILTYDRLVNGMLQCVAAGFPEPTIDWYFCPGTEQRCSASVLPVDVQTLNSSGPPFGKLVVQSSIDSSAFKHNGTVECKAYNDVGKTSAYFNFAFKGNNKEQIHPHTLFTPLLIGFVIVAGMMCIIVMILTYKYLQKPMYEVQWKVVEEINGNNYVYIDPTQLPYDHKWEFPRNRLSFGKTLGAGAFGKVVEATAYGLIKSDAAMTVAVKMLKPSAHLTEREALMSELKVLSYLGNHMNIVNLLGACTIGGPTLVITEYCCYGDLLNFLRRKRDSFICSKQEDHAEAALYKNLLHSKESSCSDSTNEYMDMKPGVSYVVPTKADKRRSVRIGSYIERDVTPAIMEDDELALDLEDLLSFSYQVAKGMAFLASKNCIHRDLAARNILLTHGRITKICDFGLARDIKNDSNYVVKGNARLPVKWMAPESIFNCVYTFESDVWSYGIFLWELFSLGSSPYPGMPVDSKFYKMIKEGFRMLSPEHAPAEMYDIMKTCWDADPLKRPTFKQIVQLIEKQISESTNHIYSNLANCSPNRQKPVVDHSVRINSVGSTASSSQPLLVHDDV
TrkA, sequence (P04629 33-796): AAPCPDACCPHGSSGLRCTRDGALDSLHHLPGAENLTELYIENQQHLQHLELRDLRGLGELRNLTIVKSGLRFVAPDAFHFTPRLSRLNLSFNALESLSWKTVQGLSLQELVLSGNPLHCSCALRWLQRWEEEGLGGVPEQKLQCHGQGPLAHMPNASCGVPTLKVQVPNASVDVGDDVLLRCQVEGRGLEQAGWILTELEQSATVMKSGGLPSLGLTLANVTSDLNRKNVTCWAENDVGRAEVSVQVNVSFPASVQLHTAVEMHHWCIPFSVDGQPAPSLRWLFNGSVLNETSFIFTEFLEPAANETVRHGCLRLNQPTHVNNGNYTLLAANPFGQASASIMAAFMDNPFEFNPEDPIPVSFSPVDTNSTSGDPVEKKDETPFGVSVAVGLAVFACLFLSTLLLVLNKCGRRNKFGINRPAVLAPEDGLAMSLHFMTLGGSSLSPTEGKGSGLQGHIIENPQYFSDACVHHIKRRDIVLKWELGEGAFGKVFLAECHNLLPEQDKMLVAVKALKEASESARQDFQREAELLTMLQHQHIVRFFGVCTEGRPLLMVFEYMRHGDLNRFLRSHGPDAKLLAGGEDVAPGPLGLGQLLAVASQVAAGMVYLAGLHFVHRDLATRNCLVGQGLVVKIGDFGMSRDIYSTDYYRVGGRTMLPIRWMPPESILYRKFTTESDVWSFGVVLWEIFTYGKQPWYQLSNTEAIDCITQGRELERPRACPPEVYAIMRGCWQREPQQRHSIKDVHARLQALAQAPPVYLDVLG
B-Raf V600E, sequence (P15056 whole entry V600E): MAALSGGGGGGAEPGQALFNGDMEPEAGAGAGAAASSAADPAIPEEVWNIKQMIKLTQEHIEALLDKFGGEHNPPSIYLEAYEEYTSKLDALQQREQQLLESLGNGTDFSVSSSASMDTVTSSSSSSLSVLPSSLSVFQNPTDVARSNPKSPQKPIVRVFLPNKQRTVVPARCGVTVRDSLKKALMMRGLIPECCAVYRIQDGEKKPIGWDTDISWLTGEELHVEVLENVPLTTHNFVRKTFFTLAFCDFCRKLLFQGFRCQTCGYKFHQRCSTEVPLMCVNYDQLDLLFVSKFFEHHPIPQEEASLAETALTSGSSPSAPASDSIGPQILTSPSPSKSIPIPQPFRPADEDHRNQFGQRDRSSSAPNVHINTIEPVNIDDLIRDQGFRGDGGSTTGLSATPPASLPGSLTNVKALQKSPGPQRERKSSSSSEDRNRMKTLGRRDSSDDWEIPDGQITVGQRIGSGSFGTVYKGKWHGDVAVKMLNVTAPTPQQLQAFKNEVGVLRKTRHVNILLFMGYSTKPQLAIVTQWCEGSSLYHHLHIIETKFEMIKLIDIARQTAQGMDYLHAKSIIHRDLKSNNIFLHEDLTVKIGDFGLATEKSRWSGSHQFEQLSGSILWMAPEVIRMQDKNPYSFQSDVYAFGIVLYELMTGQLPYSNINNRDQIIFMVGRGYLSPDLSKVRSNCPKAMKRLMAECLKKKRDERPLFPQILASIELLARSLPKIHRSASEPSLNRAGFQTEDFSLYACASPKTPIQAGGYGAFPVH
Fms, sequence (P07333 20-972): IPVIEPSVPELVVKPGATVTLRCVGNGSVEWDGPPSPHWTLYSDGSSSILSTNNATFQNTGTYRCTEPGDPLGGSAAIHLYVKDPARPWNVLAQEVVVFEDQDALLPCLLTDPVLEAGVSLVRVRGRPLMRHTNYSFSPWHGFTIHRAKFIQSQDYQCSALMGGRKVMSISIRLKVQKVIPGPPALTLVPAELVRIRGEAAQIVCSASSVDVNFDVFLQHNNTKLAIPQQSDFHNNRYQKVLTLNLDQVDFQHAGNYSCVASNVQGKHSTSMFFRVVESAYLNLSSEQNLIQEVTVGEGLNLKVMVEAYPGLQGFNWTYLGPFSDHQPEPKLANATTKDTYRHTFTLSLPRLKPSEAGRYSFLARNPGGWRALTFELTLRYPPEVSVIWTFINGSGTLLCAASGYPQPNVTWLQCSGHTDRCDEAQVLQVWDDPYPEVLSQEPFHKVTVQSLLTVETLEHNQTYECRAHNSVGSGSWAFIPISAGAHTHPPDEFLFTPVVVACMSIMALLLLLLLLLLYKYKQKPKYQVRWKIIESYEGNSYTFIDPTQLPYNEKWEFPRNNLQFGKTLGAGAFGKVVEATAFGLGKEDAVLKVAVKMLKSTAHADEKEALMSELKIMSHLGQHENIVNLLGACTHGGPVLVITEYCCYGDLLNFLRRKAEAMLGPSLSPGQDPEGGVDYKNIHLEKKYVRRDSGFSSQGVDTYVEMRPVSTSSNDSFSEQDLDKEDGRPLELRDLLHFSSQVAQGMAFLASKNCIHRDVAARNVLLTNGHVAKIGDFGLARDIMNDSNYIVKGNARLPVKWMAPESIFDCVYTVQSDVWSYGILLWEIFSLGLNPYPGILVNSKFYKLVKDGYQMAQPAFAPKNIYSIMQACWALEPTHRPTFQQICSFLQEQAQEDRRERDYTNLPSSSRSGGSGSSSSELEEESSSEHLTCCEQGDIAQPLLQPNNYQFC
Flt-1, sequence (P17948 27-1338): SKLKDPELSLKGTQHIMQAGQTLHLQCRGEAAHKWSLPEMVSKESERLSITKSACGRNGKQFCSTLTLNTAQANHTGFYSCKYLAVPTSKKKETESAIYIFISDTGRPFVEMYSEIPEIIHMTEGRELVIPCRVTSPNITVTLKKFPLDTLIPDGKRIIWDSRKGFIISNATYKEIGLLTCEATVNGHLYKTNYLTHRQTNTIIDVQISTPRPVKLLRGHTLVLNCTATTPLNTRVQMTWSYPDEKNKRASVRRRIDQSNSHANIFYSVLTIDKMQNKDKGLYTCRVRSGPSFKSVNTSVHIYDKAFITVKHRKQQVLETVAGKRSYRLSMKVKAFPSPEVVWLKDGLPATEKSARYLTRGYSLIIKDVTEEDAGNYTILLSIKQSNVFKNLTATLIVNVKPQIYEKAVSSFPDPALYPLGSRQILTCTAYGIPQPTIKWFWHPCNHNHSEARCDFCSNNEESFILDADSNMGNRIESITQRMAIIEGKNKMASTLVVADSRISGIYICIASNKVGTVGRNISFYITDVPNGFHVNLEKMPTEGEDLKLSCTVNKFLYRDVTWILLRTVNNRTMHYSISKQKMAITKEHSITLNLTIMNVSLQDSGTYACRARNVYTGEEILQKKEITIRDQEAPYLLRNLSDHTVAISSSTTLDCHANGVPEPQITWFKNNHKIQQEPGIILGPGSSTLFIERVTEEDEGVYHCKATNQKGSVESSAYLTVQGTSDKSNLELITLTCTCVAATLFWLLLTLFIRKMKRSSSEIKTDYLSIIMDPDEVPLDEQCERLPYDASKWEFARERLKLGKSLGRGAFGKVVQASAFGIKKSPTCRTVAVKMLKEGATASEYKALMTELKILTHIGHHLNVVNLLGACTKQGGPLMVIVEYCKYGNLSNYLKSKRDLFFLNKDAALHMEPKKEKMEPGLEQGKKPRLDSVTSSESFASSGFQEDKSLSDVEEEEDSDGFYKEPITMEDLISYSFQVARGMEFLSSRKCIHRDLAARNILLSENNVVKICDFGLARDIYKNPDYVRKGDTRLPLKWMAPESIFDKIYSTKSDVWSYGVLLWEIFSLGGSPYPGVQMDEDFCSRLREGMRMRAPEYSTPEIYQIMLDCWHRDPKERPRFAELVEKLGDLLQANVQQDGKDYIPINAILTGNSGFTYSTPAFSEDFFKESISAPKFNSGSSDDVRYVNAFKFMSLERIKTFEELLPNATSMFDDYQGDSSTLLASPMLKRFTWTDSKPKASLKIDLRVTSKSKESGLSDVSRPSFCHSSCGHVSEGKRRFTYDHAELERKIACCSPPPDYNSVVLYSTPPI

Clc1ccccc1CNc1ccc(Cc2c[nH]c3ncncc23)cn1 [P-0003, (2-Chloro-benzyl)-[5-(7H-pyrrolo[2,3-d]pyrimidin-5-ylmethyl)-pyridin-2-yl]-amine]
not listed: Kdr
≤ 10 µM: all other assays above

Clc1ccc(CNc2ccc(Cc3c[nH]c4ncncc34)cn2)cc1 [P-0001, (4-Chloro-benzyl)-[5-(7H-pyrrolo[2,3-d]pyrimidin-5-ylmethyl)-pyridin-2-yl]-amine]
≤ 10 µM: all assays above

— patent publication US8158636B2, “Compounds and methods for kinase modulation, and indications therefor” (Plexxikon Inc., priority 2008, dated 2012)
